One experiment has as its target HCV NS3 protease (Hepatitis C virus genotype 1b, UniProt P26662). Put plainly: Microplate protease activity assay. In kind it is biochemical, hepatitis C virus (J strain). The note with it: Table I; inhibition of HCV NS3 protease, co-factor Pep4AK, tritiated substrate. As to the method:
Microplate Protease Activity Assay
The HCV-protease (J strain) was stored until use at −80° C. in 250 mM NaCl, phosphate buffer pH 6.5, 50% glycerol, 0.1% CHAPS. As protease co-factor the peptide Pep4AK (KKKGSVVIVGRIILSGR-NH2), spanning the central hydrophobic core (residues 21–34) of the NS4A protein, with a three-lysine tag at the N-terminus to increase solubility (Bianchi, E. et al., Biochemistry 36, 7890–7897;1997), was used. Pep4AK was stored at −80° C. in DMSO; the tritiated substrate Ac-DEMEECASHLPYK (^3H-Ac)-NH2, and the corresponding cold substrate Ac-DEMEECASHLPYK(Ac)-NH2 were stored at −80° C. in DMSO/DTT.
The assay was run in Costar polypropylene 96-well plates. The composition of the reaction mixture was as follows (100 μl): • Glycerol 15% • DTT 30 mM • Hepes pH 7,5 50 mM • Triton X-100 0.05% • Protease 10 nM • hot+cold substrate 5 μM (300.000 cpm) • Pep4AK 15 μM
Test compounds were dissolved—in DMSO (final concentration 10% DMSO)
Pep4AK was pre-incubated with protease for 5 min prior to addition of substrate mix. In these conditions, the substrate Km was 7±2 μM. Test compounds were added at 8 different concentrations in 8 different wells. Plates were shaken for 30 minutes at room temperature, then an ionic exchange resin (100 μl of 20% Fractogel TSK-DEAE® 650S, Merck) was added to capture unprocessed substrate and plates shaken for another 10 minutes. After allowing the resin to settle by centrifugation, 30 μl of the reaction mix were transferred in a 96-well plate (Picoplate, Packard), admixed with 250 μl of scintillation cocktail Microscint 40, and the radioactivity measured in a scintillation Packard Top Count β-counter.
IC50 was calculated from the test compound dilution curve, as the concentration of compound giving 50% inhibitions.
Sequence of HCV NS3 protease (P26662 1027-1206, other chains not shown): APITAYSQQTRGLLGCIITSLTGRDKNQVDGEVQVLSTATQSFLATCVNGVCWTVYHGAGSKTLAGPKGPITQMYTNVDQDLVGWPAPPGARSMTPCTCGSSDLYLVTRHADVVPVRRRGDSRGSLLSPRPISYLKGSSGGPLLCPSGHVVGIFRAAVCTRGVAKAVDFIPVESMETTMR
For `CCNC(=O)[C@H](CC(C)C)NC(=O)[C@H](CC(=O)O)NC(=O)[C@H](CC1CCCCC1)NC(=O)C1=C(C(=O)O)CCCC1` [Example 4], the midpoint of inhibition, the IC50, lay at 38 µM. Same read-out and setting: the value for “S,S-cyclohexane-1,2-dicarboxylate monoamide of Cha-Asp-Leu-NHEt [Example 3]” was 32 µM; that for `CC(C)C[C@H](NC(=O)[C@H](CC(=O)O)NC(=O)[C@H](CC1CCCCC1)NC(=O)[C@@H]1CCCC[C@H]1C(=O)O)C(N)=O` (single isomer, unassigned) [Example 1, R1R-cyclohexane-1,2-dicarboxylate monoamide of Cha-Asp-Leu-NH2] was 15 µM.

The compound `CC(C)C[C@H](NC(=O)[C@H](CC(=O)O)NC(=O)[C@H](CC1CCCCC1)NC(=O)[C@@H]1CCC[C@H]1C(=O)O)C(N)=O` [Example 5] gave an IC50 of 60 µM. As for `CC(C)C[C@H](NC(=O)[C@H](CC(=O)O)NC(=O)[C@H](CC1CCCCC1)NC(=O)c1ccccc1C(=O)O)C(N)=O` [Example 6], the IC50 worked out at 64 µM. On to `CCNC(=O)[C@H](CC(C)C)NC(=O)[C@H](CC(=O)O)NC(=O)[C@H](CC1CCCCC1)NC(=O)c1ccccc1C(=O)O` [Example 7], for which the IC50 was found to be 64 µM. In turn, `CC(C)C[C@H](NC(=O)[C@H](CC(=O)O)NC(=O)[C@H](CC1CCCCC1)NC(=O)[C@H]1CCCC[C@@H]1C(=O)O)C(N)=O` [Example 2, SS-cyclohexane-1,2-dicarboxylate monoamide of Cha-Asp-Leu-NH2] came in with an IC50 of 54 µM.

The same experiment, now with this note: Table II; inhibition of HCV NS3 protease, co-factor Pep4AK, tritiated substrate.
`CC(C)C[C@H](NC(=O)[C@H](CC(=O)O)NC(=O)[C@@H](NC(=O)[C@@H]1CCCC[C@H]1C(=O)O)c1ccc(Cl)cc1)C(N)=O` [Example 12]: the IC50 worked out at 37 µM. Same read-out and setting: for `CC(C)C[C@H](NC(=O)[C@H](CC(=O)O)NC(=O)[C@@H](NC(=O)[C@@H]1CCCC[C@H]1C(=O)O)c1cccc(OC(=O)Cc2ccc3ccccc3c2)c1)C(N)=O` [Example 10] the value was 22 µM; for `CC(C)C[C@H](NC(=O)[C@H](CC(=O)O)NC(=O)[C@@H](NC(=O)[C@@H]1CCCC[C@H]1C(=O)O)c1cccc(OC(=O)[C@@H]2CCCC[C@H]2C(=O)O)c1)C(N)=O` [Example 11], 35 µM; for `CC(C)C[C@H](NC(=O)[C@H](CC(=O)O)NC(=O)[C@@H](NC(=O)[C@@H]1CCCC[C@H]1C(=O)O)c1ccccc1F)C(N)=O` [Example 14], 47 µM. `CC(C)C[C@H](NC(=O)[C@H](CC(=O)O)NC(=O)[C@@H](NC(=O)[C@@H]1CCCC[C@H]1C(=O)O)c1ccc(Br)cc1)C(N)=O` [Example 15] gave an IC50 of 26 µM.

The compound `CC(C)C[C@H](NC(=O)[C@H](CC(=O)O)NC(=O)[C@@H](NC(=O)[C@@H]1CCCC[C@H]1C(=O)O)c1ccccc1)C(N)=O` [Example 13] displayed an IC50 of 40 µM. For the compound `CC(C)CC(NC(=O)C(CC(=O)O)NC(=O)C(NC(=O)C1CCCCC1C(=O)O)c1cccc(OC(=O)CC(c2ccccc2)c2ccccc2)c1)C(N)=O` (single isomer, unassigned) [Example 8], inhibition was half-maximal at 13 µM (IC50).

In the case of `CC(C)C[C@H](NC(=O)[C@H](CC(=O)O)NC(=O)[C@@H](NC(=O)[C@@H]1CCCC[C@H]1C(=O)O)c1cccc(OC(=O)Cc2cccc3ccccc23)c1)C(N)=O` [Example 9], the IC50 was determined as 22 µM.

The same experiment, now with this note: Table III; inhibition of HCV NS3 protease, co-factor Pep4AK, tritiated substrate.
In the case of `CC(C)C[C@H](NC(=O)[C@H](CC(=O)O)N(C)C(=O)[C@H](CC1CCCCC1)NC(=O)[C@@H]1CCCC[C@H]1C(=O)O)C(N)=O` [Example 17], inhibition was half-maximal at 100 µM (IC50).

`CC(C)C[C@H](NC(=O)[C@H](CCC(=O)O)NC(=O)[C@H](CC1CCCCC1)NC(=O)[C@@H]1CCCC[C@H]1C(=O)O)C(N)=O` [Example 16] gave an IC50 of 41 µM. Regarding `CC(C)C[C@H](NC(=O)[C@H](CC(=O)O)N(C)C(=O)[C@H](CC1CCCCC1)NC(=O)c1ccccc1C(=O)O)C(N)=O` [Example 18], the IC50 worked out at 115 µM.

The same experiment, now with this note: Table IV; inhibition of HCV NS3 protease, co-factor Pep4AK, tritiated substrate.
In turn, `NC(=O)CCN(CCC(c1ccccc1)c1ccccc1)C(=O)[C@@H](NC(=O)[C@H]1CCCC[C@@H]1C(=O)O)c1ccc(Br)cc1` [Example 25] registered an IC50 of 59 µM. With `O=C(O)CCN(CC(c1ccccc1)c1ccccc1)C(=O)[C@H](CC1CCCCC1)NC(=O)[C@@H]1CCCC[C@H]1C(=O)O` [Example 32], the IC50 worked out at 133 µM. The same measure, in the same setting: for `O=C(O)CCN(CC(c1ccccc1)c1ccccc1)C(=O)[C@@H](NC(=O)[C@@H]1CCCC[C@H]1C(=O)O)c1ccccc1` [Example 29] the value was 39 µM; for `COc1ccccc1CCN(CCC(=O)O)C(=O)[C@@H](NC(=O)[C@@H]1CCCC[C@H]1C(=O)O)c1ccccc1F` [Example 26], 44 µM.

Regarding `O=C(O)CCN(CCC(c1ccccc1)c1ccccc1)C(=O)[C@@H](NC(=O)[C@@H]1CCCC[C@H]1C(=O)O)c1ccc(Br)cc1` [Example 21], the IC50 worked out at 1.7 µM. Take `COc1ccc(CCN(CCC(=O)O)C(=O)[C@@H](NC(=O)[C@@H]2CCCC[C@H]2C(=O)O)c2ccccc2)cc1OC` [Example 31]: inhibition was half-maximal at 123 µM (IC50).

Compound `O=C(O)CCN(CCC(c1ccccc1)c1ccccc1)C(=O)[C@@H](NC(=O)[C@@H]1CCCC[C@H]1C(=O)O)c1ccc(C(F)(F)F)cc1` [Example 22] returned a half-inhibitory concentration (IC50) of 7 µM. On to `O=C(O)CCN(CCc1ccc(Cl)cc1Cl)C(=O)[C@@H](NC(=O)[C@@H]1CCCC[C@H]1C(=O)O)c1ccccc1` [Example 30], for which half-maximal inhibition (IC50) required 49 µM.

`COc1cccc(CCN(CCC(=O)O)C(=O)[C@@H](NC(=O)[C@@H]2CCCC[C@H]2C(=O)O)c2ccccc2F)c1` [Example 27] displayed an IC50 of 66 µM. On the same count and under the same terms, the value for `CCOC(=O)CCN(CCC(c1ccccc1)c1ccccc1)C(=O)[C@@H](NC(=O)[C@H]1CCCC[C@@H]1C(=O)O)c1ccc(Br)cc1` [Example 24] was 60 µM. The same measure, in the same setting: for `O=C(O)CCN(CCC(c1ccccc1)c1ccccc1)C(=O)[C@H](CC1CCCCC1)NC(=O)[C@@H]1CCCC[C@H]1C(=O)O` [Example 20] the value was 55 µM. In turn, `O=C(O)CCN(CCC(c1ccccc1)c1ccccc1)C(=O)[C@@H](NC(=O)[C@@H]1CCCC[C@H]1C(=O)O)c1ccccc1` (single isomer, unassigned) [Example 19] displayed an IC50 of 14 µM. Same read-out and setting: the value for `O=C(O)CCN(CCc1ccccc1Cl)C(=O)[C@@H](NC(=O)[C@@H]1CCCC[C@H]1C(=O)O)c1ccccc1F` [Example 28] was 70 µM; that for `O=C(O)CCN(CCc1ccc(Cl)cc1Cl)C(=O)[C@H](CC1CCCCC1)NC(=O)[C@@H]1CCCC[C@H]1C(=O)O` [Example 33] was 177 µM; that for `O=C(O)CCN(CCC(c1ccccc1)c1ccccc1)C(=O)[C@@H](NC(=O)[C@@H]1CCCC[C@H]1C(=O)O)c1ccccc1F` [Example 23] was 6 µM.

As usually defined, the IC50 is the concentration that inhibits the measured activity by half.
